Measurements published in publication PMC9967275, “Screening the Pathogen Box to Discover and Characterize New Cruzain and TbrCatL Inhibitors” (Pathogens, 2023).

Legend:
TbrCatL = biological target: T1, TbrCatL (Trypanosoma brucei rhodesiense, UniProt Q95PM0); experiment: TbrCatL enzymatic inhibition assay (cleavage of fluorogenic substrate Z-FR-AMC); assay type: biochemical; settings: for TbrCatL 0’ Inhibition / TbrCatL 10’ Inhibition: sheet "Screening results"
T1 construct: Conor Caffrey (University of California San Diego)
How it was run: (§1)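 Recombinant enzymes assayed by Z-Phe-Arg-AMC cleavage at 25 °C, fluorescence 340/440 nm over 5–7 min, with 10 min or no enzyme–compound preincubation.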

cruzain = cruzain (Trypanosoma cruzi, UniProt P25779); experiment: biochemical; settings: for Cruzain 0’ Inhibition / Cruzain 10’ Inhibition: sheet "Screening results"
How it was run: as §1

[1] = 0’ (no pre-incubation), sheet Screening results
[2] = 10’ (pre-incubation), sheet Screening results
[3] = 0’ (pre-incubation time), Pathogen Box screening results
[4] = 10’ (pre-incubation time), Pathogen Box screening results
[5] = 5 µM, PB library solutions, 10 min pre-incubation, vs DMSO control

cruzain, sequence (P25779 123-337 limits assumed): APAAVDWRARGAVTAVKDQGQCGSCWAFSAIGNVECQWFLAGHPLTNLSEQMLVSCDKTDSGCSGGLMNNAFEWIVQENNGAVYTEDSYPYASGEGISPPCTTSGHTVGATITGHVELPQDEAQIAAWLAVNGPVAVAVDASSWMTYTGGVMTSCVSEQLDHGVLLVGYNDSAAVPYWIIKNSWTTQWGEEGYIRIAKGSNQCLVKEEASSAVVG
T1 sequence (Q95PM0 entry or part of it): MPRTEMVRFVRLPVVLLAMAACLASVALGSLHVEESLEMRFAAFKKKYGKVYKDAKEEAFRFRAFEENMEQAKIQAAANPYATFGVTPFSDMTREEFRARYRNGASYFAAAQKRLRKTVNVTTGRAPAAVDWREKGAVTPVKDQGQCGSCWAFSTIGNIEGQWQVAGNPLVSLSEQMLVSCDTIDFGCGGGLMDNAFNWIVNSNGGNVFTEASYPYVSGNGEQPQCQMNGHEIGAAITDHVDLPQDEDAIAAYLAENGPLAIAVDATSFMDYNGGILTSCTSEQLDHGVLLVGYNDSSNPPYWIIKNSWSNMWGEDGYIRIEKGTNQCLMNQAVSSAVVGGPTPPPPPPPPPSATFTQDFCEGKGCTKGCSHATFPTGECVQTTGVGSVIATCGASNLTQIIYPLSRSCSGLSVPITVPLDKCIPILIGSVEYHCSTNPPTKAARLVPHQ

Row | SMILES | TbrCatL Inhibition 0’ (TbrCatL; [1]) | TbrCatL Inhibition 10’ (TbrCatL; [2]) | Cruzain Inhibition 0’ (cruzain; [1]) | Cruzain Inhibition 10’ (cruzain; [2]) | further results
1 | COc1ccccc1OCCCCn1c(C2CC2)nc2ccccc21 [MMV676474] | -3.8% | -17% | -7% | -11% | 
2 | Cc1cc(C)cc(COc2ccc3c(C)c(CCC(=O)O)c(=O)oc3c2C)c1 [MMV676476] | -17% | -2.6% | 1.9% | -3.3% | 
3 | CCc1c(C)nc(-n2nc(C)cc2NC(=O)c2ccccc2SC)[nH]c1=O [MMV676477] | -4% | -17% | -0.2% | -11% | 
4 | O=C(C1CCN(c2nnc(-n3cccc3)s2)CC1)N1CCC(Cc2ccccc2)CC1 [MMV676478] |  |  |  |  | TbrCatL 0’ Inhibition (TbrCatL; 0’ (pre-incubation time)): 2.2%; TbrCatL 10’ Inhibition (TbrCatL; 10’ (pre-incubation time)): -8%; Cruzain 0’ Inhibition (cruzain; 0’ (pre-incubation time)): 0.9%; Cruzain 10’ Inhibition (cruzain; 10’ (pre-incubation time)): 2.5%
5 | COC(=O)c1c(NC(=O)c2cc3ccccc3oc2=O)sc2c1CCN(Cc1ccccc1)C2 [MMV676480] | 0.5% | -3.2% | 24% | 5.6% | 
6 | O=C(Nc1n[nH]c(=S)s1)c1cc(Br)ccc1Cl [MMV676492] |  |  |  |  | TbrCatL Inhibition 0’ (TbrCatL; [3]): -16%; TbrCatL Inhibition 10’ (TbrCatL; [4]): 35%; Cruzain Inhibition 0’ (cruzain; [3]): 10%; Cruzain Inhibition 10’ (cruzain; [4]): 27%
7 | O=C(Nc1nnc(-c2ccc(Cl)s2)o1)c1ccc(Cl)s1 [MMV676501] | -3.6% | -11% | -8% | -16% | 
8 | Cc1ccc2oc(-c3cc(NC(=O)Cc4ccccc4)ccc3Cl)nc2c1 [MMV676509] | 11% | 12% | 21% | 5% | 
9 | O=C(Nc1nc(-c2ccccn2)cs1)c1cncn1-c1ccccc1 [MMV676512] | -27% | -109% | -27% | -84% | Increase in the initial velocity of the reaction (%) 5 µM using PB samples TbrCatL (TbrCatL; [5]): 109 ± 71%; Increase in initial velocity of substrate cleavage in comparison to the DMSO control (TbrCatL; TbrCatL 10′ inc, screening at 5 µM): 2 fold; Increase in the initial velocity of the reaction (%) 5 µM using PB samples Cruzain (cruzain; [5]): 84 ± 54%; Increase in the initial velocity of the reaction (%) 5 µM using solid samples Cruzain (cruzain; 5 µM, solid samples, 10 min pre-incubation, vs DMSO control): 14 ± 9%; Increase in the initial velocity of the reaction (%) 100 µM using solid samples Cruzain (cruzain; 100 µM, solid samples, 10 min pre-incubation, vs DMSO control): 24 ± 5%; Increase in the enzyme velocity in confirmatory assays (cruzain; solid samples, varying compound concentrations): no increase in the enzyme velocity
10 | O=C(c1cc2ccccc2o1)N1CCN(Cc2ccc3c(c2)OCO3)CC1 [MMV676520] | 5% | -4.7% | -1.2% | -3.3% | 
11 | Nc1cccnc1Nc1ccc(Cl)cc1 [MMV676524] |  |  |  |  | TbrCatL 0’ Inhibition (TbrCatL; 0’ (pre-incubation time)): 11%; TbrCatL 10’ Inhibition (TbrCatL; 10’ (pre-incubation time)): 11%; Cruzain 0’ Inhibition (cruzain; 0’ (pre-incubation time)): 4.7%; Cruzain 10’ Inhibition (cruzain; 10’ (pre-incubation time)): 13%
12 | COc1ccc(-c2cc(NC(=O)c3ccc(F)cc3Cl)ccc2OC)cc1 [MMV676526] | -15% | -15% | -17% | -8% | 
13 | Cc1cccc(NC(=O)c2cc(S(=O)(=O)N(C)c3ccc(F)cc3)ccc2Cl)n1 [MMV676528] | -3% | 1.8% | 3.7% | 6% | 
14 | COCC(C)NC(=O)CSc1ncnc2sc(-c3ccccc3)cc12 (stereo not drawn) [MMV676536] | 13% | 33% | 18% | 16% | 
15 | O=C(NCCc1c[nH]c2ccccc12)c1cc2ccccc2oc1=O [MMV676539] | 10% | 20% | 14% | 14% | 
16 | COc1ccc(Nc2ccccc2NC(=O)c2ccc(=O)[nH]c2)cc1 [MMV676554] | 10% | 4.5% | 2.8% | 0.5% | 
17 | Cc1nnc(NCc2cccc(Cl)c2)c2ccccc12 [MMV676555] | 3% | -4.6% | -1.4% | 3.2% | 
18 | CC1=NN(c2nc3ccccc3s2)C(=O)C1Cc1cccc2ccccc12 (stereo not drawn) [MMV676558] | -23% | -63% | -23% | -18% | 
19 | COc1ccc(-c2nc(-c3cccc(NC(=O)Cc4ccc(F)cc4)c3)no2)cc1OC [MMV676571] | 8% | 10% | 6% | 4% | 
20 | O=C(NC1=NCCS1)c1sc2cc(F)ccc2c1Cl [MMV676584] | -0.5% | -9% | -2.7% | 9% | 
21 | Nc1c2c(nc3sc4c(c13)CCCC4)CCCC2 [MMV676588] | 14% | 2% | 11% | 13% | 
22 | O=C(CCC1CCCCC1)Nc1cccc(-c2nnc(-c3ccco3)o2)c1 [MMV676589] | 3.3% | 4.4% | 0% | 4% | 
23 | CCCn1nnc(NC(=O)COc2ccc(C3CCCCC3)cc2)n1 [MMV676597] | 10% | 10% | 3% | -3.3% | 
24 | CC(C)(C)n1nc(Cc2cccc3ccccc23)c2c(N)ncnc21 [MMV676599] |  |  |  |  | TbrCatL 0’ Inhibition (TbrCatL; 0’ (pre-incubation time)): 4.6%; TbrCatL 10’ Inhibition (TbrCatL; 10’ (pre-incubation time)): -5%; Cruzain 0’ Inhibition (cruzain; 0’ (pre-incubation time)): 9%; Cruzain 10’ Inhibition (cruzain; 10’ (pre-incubation time)): 11%
25 | CO[C@@H](C(=O)N1Cc2[nH]nc(NC(=O)c3ccc(N4CCN(C)CC4)cc3)c2C1)c1ccccc1 [MMV676600] | 7.5% | 11% | 24% | 12% | 
26 | CNC(=O)c1nn(C)c2c1C(C)(C)Cc1cnc(Nc3ccc(N4CCN(C)CC4)cc3)nc1-2 [MMV676602] | 4% | 1.5% | 0.9% | -6% | 
27 | C[C@H]1COC2(CCN(c3nc(=O)c4cc(C(F)(F)F)cc([N+](=O)[O-])c4s3)CC2)O1 [MMV676603] | 4.5% | 2.8% | 1.3% | 1.7% | 
28 | Cc1ncc(-c2ccnc(Nc3ccc(S(C)(=O)=O)cc3)n2)n1C(C)C [MMV676604] | 3% | -26% | 22% | 3.2% | 
29 | CC1(O)CC(c2nc(-c3ccc4ccc(-c5ccccc5)nc4c3)c3c(N)nccn23)C1 (stereo not drawn) [MMV676605] | 7% | -13% | 7.4% | -0.9% | 
30 | O=C(c1ccc(NCCO)cc1)C1C[C@H]1c1ccc(Cl)cc1 (stereo partly drawn) [MMV676877] |  |  |  |  | TbrCatL 0’ Inhibition (TbrCatL; 0’ (pre-incubation time)): 1.1%; TbrCatL 10’ Inhibition (TbrCatL; 10’ (pre-incubation time)): 9%; Cruzain 0’ Inhibition (cruzain; 0’ (pre-incubation time)): 9%; Cruzain 10’ Inhibition (cruzain; 10’ (pre-incubation time)): 5.5%
